The source of these data is EPA's ToxValDB 9.5 (doi:10.2903/j.efsa.2018.5288).

One series has as its system Apis mellifera. The conditions noted are these: acute, mortality.
For the next series, the system named is Mus musculus. The conditions noted are these: chronic; duration: 18 months; oral; diet; neurology.
A further series concerns Anas platyrhynchos. The following applies: short-term; mortality.
Another series deals with Lepomis macrochirus. The conditions noted are these: acute; duration: 96 hours; mortality.

Converted amounts (≈) assume the structure as drawn.

What is called NOAEL is the highest tested level that showed no adverse finding. Broadly, the LC50 is the concentration lethal to half of the exposed cells or organisms. The low end stands for greater toxicity, the high end for lower toxicity. As to `CCCCC(CC)COC(=O)[C@@H](C)Oc1ccc(Cl)cc1Cl` (stereo not given in full) [Dichlorprop-P-2-ethylhexyl], the LD50 with Colinus virginianus (acute, oral, mortality) is 1010 mg/kg-day; in the series with Apis mellifera (dermal) it was more than 180 µg/piece; with Apis mellifera (oral, unspecified), more than 178 µg/piece; in the series on Anas platyrhynchos, more than 928 mg/kg-day; in the series with Rattus norvegicus (acute, mortality), 824 mg/kg-day. In addition, the NOEL in the series with Colinus virginianus (reproduction developmental) came out at 101 mg/kg-day. Further, the NOAEL in the series with Mus musculus amounted to 6 mg/kg-day; in the series on Rattus norvegicus (developmental, development) it was 80 mg/kg-day; in the series on Rattus norvegicus (reproduction developmental, body weight), 20 mg/kg-day. The LC50 with Lepomis macrochirus is 7.9 µg/mL (≈ 22.7 µM).
